In patent US11352394B2, “Cyclic cell penetrating peptides comprising beta-hairpin motifs and methods of making and using thereof” (Ohio State Innovation Foundation, priority 2016, dated 2022):
Several values for one entry are separate records, joined by “and”; a condition that tells them apart may be missing. Equal entries are not always repeated. Bridge positions count the residues as written; N and C are the ends. Square brackets hold non-standard residues; d marks the D form. Ends that are not written are not given here. 2Nal = N[C@@H](Cc1ccc2ccccc2c1)C(=O)O; d2Nal = N[C@H](Cc1ccc2ccccc2c1)C(=O)O; Dap = NC[C@H](N)C(=O)O

System: HeLa cells
Test: Cellular (cytosolic) uptake of NF-labeled peptides by flow cytometry (MFI)
Type: cell-based
Settings: for Cellular Uptake (MFI^NF, %), cytosolic delivery efficiency of CPPs without beta-hairpin moiety: relative to CPP 1 (100%), mean ± S.D. of three independent experiments; for Cellular Uptake (MFINF, %) / Cellular entry / delivery efficiency (in words): flow cytometry; for Cellular Uptake (MFINF, %): relative to CPP1 (100%); for Improvement of cytosolic entry efficiency relative to BH4: D-amino acid diastereomers of BH4; for Cellular Uptake (MFI^NF, %) of β-hairpin transporters: 5 μM peptide
Protocol: HeLa cells were treated with 5 μM peptide for 2 h, and their cell uptake efficiencies were determined by flow cytometry analysis. The mean fluorescence intensity (MFI) values derived from cytometry analyses reflect the amounts of peptides inside the cytosol and nucleus, whereas any NF-labeled peptide entrapped inside the acidic endosomes are invisible under the experimental conditions (Id.; Qian, Z et al. Chem. Commun. 2015, 51, 2162-2165).
The binding affinity of BH23 (unlabeled) for the Grb2 SH2 domain was then determined by examining its ability to compete with the FAM-labeled ligand for binding to the Grb2 SH2 domain by fluorescence polarization (FP). […] Next, BH23 was labeled with NF at the Asn side chain through a miniPEG-Lys linker and its cytosolic entry efficiency was quantitated by treating HeLa cells with 5 μM of the labeled peptide for 2 h before flow cytometry analysis. […] BH23 was also similarly labeled at the Asn side chain with FAM and its entry into HeLa cells was examined by live-cell confocal microscopy. […] Two control peptides (BH24 and BH25) were also prepared for cellular assays. BH24 and BH25 are structurally similar to BH23, except that BH24 contained a Tyr instead of the pY residue (FIG. 11), whereas in BH25 the two hydrophobic residues critical for cellular uptake (Nal-arg) were replaced with Ala-ala (FIG. 12).
BHT1 and BHT2 were labeled with naphthofluorescein (NF) and their cytosolic uptake into HeLa cells was determined by flow cytometry (Table 10).
Additional cell penetrating compounds were prepared and tested for cytosolic delivery. In these compounds there was no beta-hairpin turn creating moiety.

[1] = HeLa cells, 5 μM NF-labeled peptide, 2 h
[2] = HeLa cells, 2 h, DMEM with 10% FBS and 1% ABS, relative to CPP9 (100%)

Row | Substance | Cellular Uptake (MFI^NF, %), cytosolic delivery efficiency of CPPs without beta-hairpin moiety | Cellular Uptake (MFINF, %) [1] | further results
1 | 275 (cyclo(F[dF]F[dR]R[dR]Q); SMILES N=C(N)NCCC[C@@H]1NC(=O)[C@@H](CCCNC(=N)N)NC(=O)[C@H](Cc2ccccc2)NC(=O)[C@@H](Cc2ccccc2)NC(=O)[C@H](Cc2ccccc2)NC(=O)[C@H](CCC(N)=O)NC(=O)[C@@H](CCCNC(=N)N)NC1=O) [Peptide 275] | 236 ± 26% |  | 
2 | 276 (cyclo([dF]F[d2Nal][dR]R[dR]Q); also: further D-residues, places not given here) [Peptide 276] | 250 ± 37% |  | 
3 | 277 (cyclo([dF][2Nal][dF][dR]R[dR]Q)) [Peptide 277] | 267 ± 62% |  | 
4 | 278 (cyclo([d2Nal]F[dF][dR]R[dR]Q); also: further D-residues, places not given here) [Peptide 278] | 50 ± 9% |  | 
5 | 279 (cyclo(F[2Nal][dR]R[dR]Q)) [Peptide 279] | 76% |  | 
6 | 280 (cyclo([dF][2Nal][dR]R[dR]Q)) [Peptide 280] | 214% |  | 
7 | 281 (Ac-K[dF]FR[dR]R[dR]D; lactam 1-8 (inferred); not fully specified; printed as Ac-(Lys-fFRrRrD)) [Peptide 281] | 129 ± 9% |  | 
8 | 282 (Ac-[Dap][dF]FR[dR]R[dR]D; lactam 1-8 (inferred); not fully specified; printed as Ac-(Dap-fFRrRrD)) [Peptide 282] | 126 ± 33% |  | 
9 | 283 (CWWRRRRC; disulfide 1-8) [Peptide 283] | 51% |  | 
10 | 284 (CWWWRRRRC; disulfide 1-9) [Peptide 284] | 67% |  | 
11 | 285 (CFWRRRRC; disulfide 1-8) [Peptide 285] | 49% |  | 
12 | 286 (CWWWRRRC; disulfide 1-8) [Peptide 286] | 135% |  | 
13 | cyclo(A-A-F-R-R-p-P-R-R-Φ-A-A-A-Q)-miniPEG-K(NF) (cyclo(AAFRR[dP]PRR[2Nal]AAAQ); not fully specified (residue 14); printed as cyclo(A-A-F-R-R-p-P-R-R-Φ-A-A-A-Q)-miniPEG-K(NF)) [BH2] |  | 24 ± 1% | 
14 | cyclo(A-A-F-Φ-F-p-P-R-R-R-A-A-A-Q)-miniPEG-K(NF) (cyclo(AAF[2Nal]F[dP]PRRRAAAQ); not fully specified (residue 14); printed as cyclo(A-A-F-Φ-F-p-P-R-R-R-A-A-A-Q)-miniPEG-K(NF)) [BH3] |  | 30 ± 6% | 
15 | cyclo(A-A-F-Φ-R-p-P-R-R-F-A-A-A-Q)-miniPEG-K(NF) (cyclo(AAF[2Nal]R[dP]PRRFAAAQ); not fully specified (residue 14); printed as cyclo(A-A-F-Φ-R-p-P-R-R-F-A-A-A-Q)-miniPEG-K(NF)) [BH4] |  | 73 ± 6% | Cellular entry / delivery efficiency (in words) (HeLa cells): taken up most efficiently
16 | cyclo(A-A-F-Φ-R-p-P-R-R-R-A-A-A-Q)-miniPEG-K(NF) (cyclo(AAF[2Nal]R[dP]PRRRAAAQ); not fully specified (residue 14); printed as cyclo(A-A-F-Φ-R-p-P-R-R-R-A-A-A-Q)-miniPEG-K(NF)) [BH1] |  | 66 ± 12% | 
17 | cyclo(A-A-F-Φ-R-p-P-R-r-F-A-A-A-Q)-miniPEG-K(NF) (cyclo(AAF[2Nal]R[dP]PR[dR]FAAAQ); not fully specified (residue 14); printed as cyclo(A-A-F-Φ-R-p-P-R-r-F-A-A-A-Q)-miniPEG-K(NF)) [BH7] |  | 363 ± 213% | Improvement of cytosolic entry efficiency relative to BH4 (HeLa cells): 5 fold
18 | cyclo(A-A-F-Φ-R-p-P-r-R-F-A-A-A-Q)-miniPEG-K(NF) (cyclo(AAF[2Nal]R[dP]P[dR]RFAAAQ); not fully specified (residue 14); printed as cyclo(A-A-F-Φ-R-p-P-r-R-F-A-A-A-Q)-miniPEG-K(NF)) [BH5] |  | 102 ± 45% | Improvement of cytosolic entry efficiency relative to BH4 (HeLa cells): only minor effect
19 | cyclo(A-A-F-Φ-r-p-P-R-R-F-A-A-A-Q)-miniPEG-K(NF) (cyclo(AAF[2Nal][dR][dP]PRRFAAAQ); not fully specified (residue 14); printed as cyclo(A-A-F-Φ-r-p-P-R-R-F-A-A-A-Q)-miniPEG-K(NF)) [BH6] |  | 431 ± 169% | Improvement of cytosolic entry efficiency relative to BH4 (HeLa cells): 6 fold
20 | cyclo(A-A-F-φ-R-p-P-R-R-F-A-A-A-Q)-miniPEG-K(NF) (cyclo(AAF[d2Nal]R[dP]PRRFAAAQ); not fully specified (residue 14); printed as cyclo(A-A-F-φ-R-p-P-R-R-F-A-A-A-Q)-miniPEG-K(NF)) [BH8] |  | 235% | Improvement of cytosolic entry efficiency relative to BH4 (HeLa cells): 3 fold
21 | cyclo(A-E-T-G-E-F-L-F-Φ-r-p-P-R-R-F-L-Q)-miniPEG-K(NF) (cyclo(AETGEFLF[2Nal][dR][dP]PRRFLQ); not fully specified (residue 17); printed as cyclo(A-E-T-G-E-F-L-F-Φ-r-p-P-R-R-F-L-Q)-miniPEG-K(NF)) [BH12] |  | 575 ± 239% | Cytosolic entry efficiency, fold higher than CPP1 (HeLa cells): 5.8 fold
22 | cyclo(AFΦPRRFQ)-miniPEG-K(NF) [BHT1] |  |  | Cellular Uptake (MFI^NF, %) of β-hairpin transporters [2]: 88% and 88 ± 11%
23 | cyclo(D-A-F-Φ-r-p-P-R-R-F-D-A-D-Q)-miniPEG-K(NF) (cyclo(DAF[2Nal][dR][dP]PRRFDADQ); not fully specified (residue 14); printed as cyclo(D-A-F-Φ-r-p-P-R-R-F-D-A-D-Q)-miniPEG-K(NF)) [BH10] |  | 44 ± 19% | Cellular entry / delivery efficiency (in words) (HeLa cells): lowest delivery efficiency
24 | cyclo(FΦrpPRRFAQ)-miniPEG-K(NF) (cyclo(F[2Nal][dR][dP]PRRFAQ); not fully specified (residue 10); printed as cyclo(FΦrpPRRFAQ)-miniPEG-K(NF)) [BHT2] |  |  | Cellular Uptake (MFI^NF, %) of β-hairpin transporters [2]: 15% and 15 ± 2%
25 | cyclo(R-A-F-Φ-r-p-P-R-R-F-R-A-R-Q)-miniPEG-K(NF) (cyclo(RAF[2Nal][dR][dP]PRRFRARQ); not fully specified (residue 14); printed as cyclo(R-A-F-Φ-r-p-P-R-R-F-R-A-R-Q)-miniPEG-K(NF)) [BH9] |  | 104 ± 27% | 
26 | cyclo(S-A-S-F-Φ-r-p-P-R-R-F-S-A-S-A-Q)-miniPEG-K(NF) (cyclo(SASF[2Nal][dR][dP]PRRFSASAQ); not fully specified (residue 16); printed as cyclo(S-A-S-F-Φ-r-p-P-R-R-F-S-A-S-A-Q)-miniPEG-K(NF)) [BH11] |  | 245 ± 16% | 
27 | cyclo(f-Φ-R-r-R-r-Q)-miniPEG-K(NF) (cyclo([dF][2Nal]R[dR]R[dR]Q); not fully specified (residue 7); printed as cyclo(f-Φ-R-r-R-r-Q)-miniPEG-K(NF)) [CPP9, reference compound] |  |  | Cellular Uptake (MFI^NF, %), cytosolic entry efficiency (HeLa cells, 5 μM NF-labeled peptide, 2 h, DMEM with 10% FBS and 1% ABS, relative to CPP9 (100%)): 100%; Cellular Uptake (MFI^NF, %) of β-hairpin transporters [2]: 100%
